Data from article PMC5458547, “Discovery of first-in-class reversible dual small molecule inhibitors against G9a and DNMTs in hematological malignancies” (Nature Communications, 2017).

How the values were obtained:
PRMT3 = biological target: T1, PRMT3 (Homo sapiens, UniProt O60678); experiment: Epigenetics selectivity panel (BPS Bioscience); assay type: biochemical
T1 construct: purchased DiscoverX KINOMEscan (kinases); BPS Bioscience (epigenetic targets)

MOLT-4 = experiment: Cell proliferation assay (MTS); assay type: cell-based; conditions: Homo sapiens, ALL, 48 h
H23 = experiment: Cell proliferation assay (MTS); assay type: cell-based; conditions: Homo sapiens, NCI-H23; NSCLC
OCI-AML-2 = experiment: Cell proliferation assay (MTS); assay type: cell-based, human; conditions: Homo sapiens, OCI-AML2; AML, 48 h; read-out: GI50
SK-MEL-147 = experiment: Cell proliferation assay (MTS); assay type: cell-based; conditions: Homo sapiens, Melanoma
JMJD1A = biological target: T2, JMJD1A (Homo sapiens, UniProt Q9Y4C1); experiment: Epigenetics selectivity panel (BPS Bioscience); assay type: biochemical
T2 construct: purchased DiscoverX KINOMEscan (kinases); BPS Bioscience (epigenetic targets)
T2 sequence (Q9Y4C1 whole entry): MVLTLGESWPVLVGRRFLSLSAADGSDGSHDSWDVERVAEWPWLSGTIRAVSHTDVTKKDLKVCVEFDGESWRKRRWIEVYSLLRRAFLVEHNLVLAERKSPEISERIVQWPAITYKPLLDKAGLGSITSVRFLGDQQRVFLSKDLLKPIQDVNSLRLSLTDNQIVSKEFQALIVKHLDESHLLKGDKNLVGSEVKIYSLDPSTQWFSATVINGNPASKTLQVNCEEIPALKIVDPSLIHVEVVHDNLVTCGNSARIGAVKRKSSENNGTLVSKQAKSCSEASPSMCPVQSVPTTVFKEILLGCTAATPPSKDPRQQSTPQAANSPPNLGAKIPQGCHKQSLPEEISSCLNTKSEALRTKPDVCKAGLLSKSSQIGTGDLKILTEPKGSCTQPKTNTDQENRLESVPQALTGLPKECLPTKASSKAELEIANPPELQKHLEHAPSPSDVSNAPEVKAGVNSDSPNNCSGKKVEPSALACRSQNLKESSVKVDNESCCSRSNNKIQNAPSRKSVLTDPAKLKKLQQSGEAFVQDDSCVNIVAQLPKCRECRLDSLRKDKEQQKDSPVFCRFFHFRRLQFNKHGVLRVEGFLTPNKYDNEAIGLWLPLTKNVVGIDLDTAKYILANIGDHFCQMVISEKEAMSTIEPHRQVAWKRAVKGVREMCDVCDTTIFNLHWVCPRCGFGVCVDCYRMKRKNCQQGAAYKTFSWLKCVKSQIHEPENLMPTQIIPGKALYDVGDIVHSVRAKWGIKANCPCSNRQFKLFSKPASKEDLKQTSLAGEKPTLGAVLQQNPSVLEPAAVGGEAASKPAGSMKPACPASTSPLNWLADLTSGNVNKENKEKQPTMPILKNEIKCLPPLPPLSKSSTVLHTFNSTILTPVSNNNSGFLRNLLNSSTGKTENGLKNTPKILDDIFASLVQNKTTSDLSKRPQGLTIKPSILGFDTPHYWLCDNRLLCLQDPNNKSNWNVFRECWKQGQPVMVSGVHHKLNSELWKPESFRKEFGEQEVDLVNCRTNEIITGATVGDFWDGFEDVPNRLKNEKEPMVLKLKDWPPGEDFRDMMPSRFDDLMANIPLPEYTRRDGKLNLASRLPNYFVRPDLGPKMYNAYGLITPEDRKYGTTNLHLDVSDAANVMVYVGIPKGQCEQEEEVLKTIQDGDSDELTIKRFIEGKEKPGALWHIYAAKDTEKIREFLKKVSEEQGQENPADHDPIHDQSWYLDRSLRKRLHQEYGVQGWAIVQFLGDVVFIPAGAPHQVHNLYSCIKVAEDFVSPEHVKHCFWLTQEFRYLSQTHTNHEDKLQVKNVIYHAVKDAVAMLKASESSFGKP

HCT-116 = experiment: Cell proliferation assay (MTS); assay type: cell-based; conditions: Homo sapiens, Colorectal
SK-MEL-103 = experiment: Cell proliferation assay (MTS); assay type: cell-based; conditions: Homo sapiens, Melanoma
HL-60 = experiment: Cell proliferation assay (MTS); assay type: cell-based; conditions: Homo sapiens, AML, 48 h
Jarid1B = biological target: T3, Jarid1B (Homo sapiens, UniProt Q9UGL1); experiment: Epigenetics selectivity panel (BPS Bioscience); assay type: biochemical
T3 construct: purchased DiscoverX KINOMEscan (kinases); BPS Bioscience (epigenetic targets)

PRMT8 = biological target: T4, PRMT8 (Homo sapiens, UniProt Q9NR22); experiment: Epigenetics selectivity panel (BPS Bioscience); assay type: biochemical
T4 construct: purchased DiscoverX KINOMEscan (kinases); BPS Bioscience (epigenetic targets)
T4 sequence (Q9NR22 whole entry): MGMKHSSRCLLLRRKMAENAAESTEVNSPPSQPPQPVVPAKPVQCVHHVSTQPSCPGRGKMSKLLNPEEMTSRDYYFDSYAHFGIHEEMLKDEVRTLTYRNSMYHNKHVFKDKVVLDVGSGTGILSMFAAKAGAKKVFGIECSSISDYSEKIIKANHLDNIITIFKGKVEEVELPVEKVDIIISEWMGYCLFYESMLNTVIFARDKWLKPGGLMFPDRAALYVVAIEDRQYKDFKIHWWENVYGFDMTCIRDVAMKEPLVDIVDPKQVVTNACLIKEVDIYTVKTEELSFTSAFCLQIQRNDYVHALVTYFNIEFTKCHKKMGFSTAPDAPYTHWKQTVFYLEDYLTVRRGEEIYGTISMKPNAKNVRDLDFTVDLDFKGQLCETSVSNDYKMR

in vitro = assay type: cell-based; conditions: human
Description: Cell viability was determined by measuring the concentration of cellular adenosine triphosphate (ATP) using the ATP1Step Kit as described by the manufacturer (Perkin-Elmer). PBMCs were isolated following the regular density gradient centrifugation procedure with Ficoll. Details are provided in Supplementary Information. […]
each test plate followed by incubation for 10 min at room temperature on an orbital shaker. ATP concentration was determined by reading chemical luminescence using the Envision plate reader (PerkinElmer). The percentage of viable cells relative to the non-drug treated controls was determined for […]
Cells were plated in 96-well black microplates at 100,000 cells/well density with DMEM medium (containing 10% FBS and antibiotics) and were incubated at 37 °C (5% CO2, 95% humidity) for 24 h. […] Following this 72 h exposure to test compounds, cell viability in each well was determined by measuring the concentration of cellular adenosine triphosphate (ATP) using the ATP1Step Kit as described by the manufacturer (Perkin-Elmer). […] ATP concentration was determined by reading chemical luminescence using the Envision plate reader (PerkinElmer). […]
sampler temperature was set at 7 °C and column temperature at 50 °C. For detection and quantification, the electrospray ionization operated in the positive mode, and the collision gas used was ultra-pure argon at a flow rate of 0.15 mL min−1. […]

KASUMI-1 = experiment: Cell proliferation assay (MTS); assay type: cell-based; conditions: Homo sapiens, AML, 48 h
BRD4(BD1+BD2) = biological target: T5, BRD4(BD1+BD2) (Homo sapiens, UniProt O60885); experiment: Epigenetics selectivity panel (BPS Bioscience); assay type: binding
T5 construct: BRD2(BD1+BD2), BRD4(BD1+BD2), BRDT(BD1); purchased BPS Bioscience (contract panel)

PRMT6 = biological target: T6, PRMT6 (Homo sapiens, UniProt Q96LA8); experiment: Epigenetics selectivity panel (BPS Bioscience); assay type: biochemical
T6 construct: purchased BPS Bioscience (contract panel)
T6 sequence (Q96LA8 whole entry): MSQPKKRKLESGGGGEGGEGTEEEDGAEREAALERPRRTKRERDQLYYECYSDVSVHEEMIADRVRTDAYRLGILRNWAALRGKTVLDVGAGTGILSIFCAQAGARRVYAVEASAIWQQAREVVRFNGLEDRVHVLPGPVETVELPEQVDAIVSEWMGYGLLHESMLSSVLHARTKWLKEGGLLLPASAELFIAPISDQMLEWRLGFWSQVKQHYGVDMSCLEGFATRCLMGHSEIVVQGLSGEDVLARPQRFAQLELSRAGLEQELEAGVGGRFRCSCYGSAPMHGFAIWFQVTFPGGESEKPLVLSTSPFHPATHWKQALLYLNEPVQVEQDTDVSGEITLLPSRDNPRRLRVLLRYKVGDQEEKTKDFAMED

[1] = Liver microsomal stability; assay type: in vitro ADME; conditions: mouse, mouse liver microsomes; read-out: Liver Microsomal Stability. Estimation T1/2
A498 = experiment: Cell proliferation assay (MTS); assay type: cell-based; conditions: Homo sapiens, Renal
RPMI 8226 = experiment: Cell proliferation assay (MTS); assay type: cell-based; conditions: Homo sapiens, MM
SK-MEL-19 = experiment: Cell proliferation assay (MTS); assay type: cell-based; conditions: Homo sapiens, SK-MEL19; Melanoma
A375 = experiment: Cell proliferation assay (MTS); assay type: cell-based; conditions: Homo sapiens, A-375; Melanoma
PEER = experiment: Cell proliferation assay (MTS); assay type: cell-based; conditions: Homo sapiens; ALL, 48 h
PRMT4 = biological target: T7, PRMT4 (Homo sapiens, UniProt Q86X55); experiment: Epigenetics selectivity panel (BPS Bioscience); assay type: biochemical
T7 construct: purchased DiscoverX KINOMEscan (kinases); BPS Bioscience (epigenetic targets)
T7 sequence (Q86X55 whole entry): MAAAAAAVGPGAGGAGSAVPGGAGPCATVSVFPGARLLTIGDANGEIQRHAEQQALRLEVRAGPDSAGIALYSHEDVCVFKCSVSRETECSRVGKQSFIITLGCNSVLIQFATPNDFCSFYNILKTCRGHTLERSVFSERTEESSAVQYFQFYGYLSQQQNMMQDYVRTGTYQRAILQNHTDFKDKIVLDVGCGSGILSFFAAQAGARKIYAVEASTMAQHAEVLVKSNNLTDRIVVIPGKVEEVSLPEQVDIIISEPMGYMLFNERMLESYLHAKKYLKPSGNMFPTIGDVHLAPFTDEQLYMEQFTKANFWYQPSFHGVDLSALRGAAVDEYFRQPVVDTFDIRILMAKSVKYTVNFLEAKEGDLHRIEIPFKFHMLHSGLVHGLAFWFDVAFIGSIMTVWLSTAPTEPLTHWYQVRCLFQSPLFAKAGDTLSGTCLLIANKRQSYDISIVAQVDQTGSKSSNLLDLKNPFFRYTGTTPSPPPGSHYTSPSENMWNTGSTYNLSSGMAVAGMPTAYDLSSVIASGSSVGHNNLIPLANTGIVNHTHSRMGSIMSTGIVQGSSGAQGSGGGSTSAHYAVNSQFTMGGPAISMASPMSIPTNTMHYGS

JJN3 = experiment: Cell proliferation assay (MTS); assay type: cell-based; conditions: Homo sapiens, JJN-3; MM
ATAD2B = biological target: T8, ATAD2B (Homo sapiens, UniProt Q9ULI0); experiment: Epigenetics selectivity panel (BPS Bioscience); assay type: binding
T8 construct: purchased DiscoverX KINOMEscan (kinases); BPS Bioscience (epigenetic targets)
T8 sequence (Q9ULI0 whole entry): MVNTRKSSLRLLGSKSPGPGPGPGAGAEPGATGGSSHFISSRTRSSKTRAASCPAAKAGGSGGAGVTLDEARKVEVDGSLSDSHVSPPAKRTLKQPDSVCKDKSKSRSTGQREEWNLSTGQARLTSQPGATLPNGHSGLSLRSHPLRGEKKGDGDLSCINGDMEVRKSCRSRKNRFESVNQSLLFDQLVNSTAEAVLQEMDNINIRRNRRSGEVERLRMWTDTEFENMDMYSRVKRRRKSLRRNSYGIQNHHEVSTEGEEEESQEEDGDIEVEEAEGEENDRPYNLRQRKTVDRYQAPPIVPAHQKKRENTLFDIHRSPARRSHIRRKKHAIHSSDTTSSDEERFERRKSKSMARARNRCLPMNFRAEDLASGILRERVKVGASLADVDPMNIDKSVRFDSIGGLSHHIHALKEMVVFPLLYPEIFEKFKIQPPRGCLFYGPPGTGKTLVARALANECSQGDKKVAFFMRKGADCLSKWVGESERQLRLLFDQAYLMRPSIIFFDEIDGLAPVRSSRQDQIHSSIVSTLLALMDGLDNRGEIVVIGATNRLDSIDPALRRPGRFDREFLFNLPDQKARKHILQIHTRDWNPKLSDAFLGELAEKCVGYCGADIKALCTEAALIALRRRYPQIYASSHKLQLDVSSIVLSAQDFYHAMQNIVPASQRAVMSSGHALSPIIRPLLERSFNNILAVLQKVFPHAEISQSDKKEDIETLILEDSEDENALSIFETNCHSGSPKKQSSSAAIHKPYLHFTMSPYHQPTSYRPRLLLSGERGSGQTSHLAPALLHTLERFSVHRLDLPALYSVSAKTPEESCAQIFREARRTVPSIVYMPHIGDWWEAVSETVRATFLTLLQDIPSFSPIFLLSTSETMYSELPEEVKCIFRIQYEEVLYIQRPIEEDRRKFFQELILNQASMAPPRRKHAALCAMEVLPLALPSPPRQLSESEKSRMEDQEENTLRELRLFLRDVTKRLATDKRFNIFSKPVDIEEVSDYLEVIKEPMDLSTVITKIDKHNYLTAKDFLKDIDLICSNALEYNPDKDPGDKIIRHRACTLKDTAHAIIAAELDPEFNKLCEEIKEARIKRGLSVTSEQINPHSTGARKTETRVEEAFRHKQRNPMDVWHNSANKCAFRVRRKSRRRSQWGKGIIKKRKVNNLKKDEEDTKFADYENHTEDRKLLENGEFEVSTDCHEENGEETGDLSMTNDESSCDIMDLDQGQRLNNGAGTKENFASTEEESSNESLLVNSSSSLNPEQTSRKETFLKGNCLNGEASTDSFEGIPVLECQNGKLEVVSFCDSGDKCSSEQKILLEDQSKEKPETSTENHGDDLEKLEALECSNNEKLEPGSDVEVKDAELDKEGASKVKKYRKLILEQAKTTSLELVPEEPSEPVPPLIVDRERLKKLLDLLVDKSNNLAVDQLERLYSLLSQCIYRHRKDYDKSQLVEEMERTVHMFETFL

T1 sequence (O60678 whole entry): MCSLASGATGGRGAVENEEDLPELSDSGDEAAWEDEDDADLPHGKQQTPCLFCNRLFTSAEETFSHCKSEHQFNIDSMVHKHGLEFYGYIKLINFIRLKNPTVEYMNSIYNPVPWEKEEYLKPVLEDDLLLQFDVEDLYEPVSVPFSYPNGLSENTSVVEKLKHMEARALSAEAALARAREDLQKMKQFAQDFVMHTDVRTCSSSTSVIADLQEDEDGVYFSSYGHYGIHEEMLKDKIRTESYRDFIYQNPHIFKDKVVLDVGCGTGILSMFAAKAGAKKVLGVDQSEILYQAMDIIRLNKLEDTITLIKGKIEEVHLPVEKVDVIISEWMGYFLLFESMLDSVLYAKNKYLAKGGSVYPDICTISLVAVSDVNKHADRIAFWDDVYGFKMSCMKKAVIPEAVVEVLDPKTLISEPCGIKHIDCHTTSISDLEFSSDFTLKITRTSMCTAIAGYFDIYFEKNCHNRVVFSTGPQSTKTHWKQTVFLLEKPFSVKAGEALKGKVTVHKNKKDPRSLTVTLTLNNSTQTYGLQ

`COc1cc2c(NC3CCN(C)CC3)cc(-c3ccc(C)o3)nc2cc1OCCCN1CCCC1` [CM-272, 6-methoxy-2-(5-methyl-2-furyl)-N-(1-methyl-4-piperidyl)-7-(3-pyrrolidin-1-ylpropoxy)quinolin-4-amine] gave an inhibition at 10 µM (PRMT3) of 7%, a GI50 (MOLT-4) greater than 5000 nM and a GI50 (H23) of 2490 nM. It also gave a GI50 (OCI-AML-2) of 256 nM, a GI50 (SK-MEL-147) of 422 nM and an inhibition at 10 µM (JMJD1A) of 8%. For the same molecule, the GI50 (HCT-116) was 602 nM, the GI50 (SK-MEL-103) was 281 nM and the GI50 (HL-60) was 2900 nM. The inhibition at 10 µM (Jarid1B) was 5%, the inhibition at 10 µM (PRMT8) was 11% and the CC50 at 72 h (in vitro) was 1900 nM. For the same molecule, the GI50 (KASUMI-1) was 7140 nM, the inhibition at 10 µM (BRD4(BD1+BD2)) was 56% and the IC50 (BRD4(BD1+BD2); BPS) was 1500 nM. It also gave an inhibition at 10 µM (PRMT6) of 82%, an IC50 (PRMT6; BPS) of 3000 nM and a half-life at 1 µM [1] of 35.2 min. The GI50 (A498) was 4760 nM, the GI50 (RPMI 8226) was 2000 nM and the GI50 (SK-MEL-19) was 1040 nM. The GI50 (A375) was 357 nM, the GI50 (PEER) was 930 nM and the inhibition at 10 µM (PRMT4) was 5%. The GI50 (JJN3) was 1320 nM and the inhibition at 10 µM (ATAD2B) was 0%.
Work on `COc1cc2c(NCC3CCN(C)CC3)cc(-c3ccc(C)o3)nc2cc1OCCCN1CCCC1` [CM-579, 6-methoxy-2-(5-methyl-2-furyl)-N-[(1-methyl-4-piperidyl)methyl]-7-(3-pyrrolidin-1-ylpropoxy)quinolin-4-amine] yielded an inhibition at 10 µM (PRMT3) of 5%, a GI50 (MOLT-4) greater than 10000 nM and a GI50 (H23) of 1140 nM. It also gave a GI50 (OCI-AML-2) of 490 nM, a GI50 (SK-MEL-147) of 32 nM and an inhibition at 10 µM (JMJD1A) of 6%. The GI50 (HCT-116) was 176 nM, the GI50 (SK-MEL-103) was 29 nM and the GI50 (HL-60) was greater than 10000 nM. It also gave an inhibition at 10 µM (Jarid1B) of 27%, an inhibition at 10 µM (PRMT8) of 12% and a CC50 at 72 h (in vitro) of 7390 nM. It also gave a GI50 (KASUMI-1) of 5210 nM, an inhibition at 10 µM (BRD4(BD1+BD2)) of 0% and an inhibition at 10 µM (PRMT6) of 40%. The half-life at 1 µM [1] was 10.7 min, the GI50 (A498) was 441 nM and the GI50 (RPMI 8226) was 5420 nM. For the same molecule, the GI50 (SK-MEL-19) was 161 nM, the GI50 (A375) was 48 nM and the GI50 (PEER) was greater than 10000 nM. For the same molecule, the inhibition at 10 µM (PRMT4) was 6%, the GI50 (JJN3) was 4350 nM and the inhibition at 10 µM (ATAD2B) was 0%.
